For one series, the system named is KSS fibroblasts. Kind of series: Seahorse mitochondrial fatty acid oxidation. The format is cell-based, human. As for the experimental part:
(§1) FAO was measured using a Seahorse XF96 (Seahorse Biosciences). MELAS m.3243A>G fibroblasts, KSS fibroblasts, and MERRF tRNA-Lys 8344 cybrids were treated with DMSO or Compound (I) 8 hours after seeding into flasks. 24 hours after initial treatment, media was changed to complete media with DMSO or Compound (I) with reduced glucose (1.1 mM for primary fibroblasts and 5.5 mM for cybrids) and 0.5 mM carnitine. After 48 hours after initial treatment, cells were plated into 96-well cell culture microplates at a density of 40,000 cells per well. FAO assay was initiated 8 hours after plating.
(§2) 200 μL of KHB was added to the blank wells and 200 μL KHB mixed with control BSA (final 0.074 mM) or BSA-palmitate (final 0.074 mM BSA, 500 μM palmitate was added to the appropriate wells. Stress test components compounds are added in the following sequential order; 1) Oligomycin, 2) FCCP, and 3) Rotenone and Antimycin A for final concentrations of 2.5 μM, 6 μM and 1 μM, respectively. Oxidation of palmitate was assessed using the same ratio as LHON/Leigh fibroblasts.

The subject of series [1] is MERRF tRNA-Lys 8344 cybrids. Briefly: Seahorse mitochondrial fatty acid oxidation. The format is cell-based, human. The note with it: MERRF cybrid cell line, FIG. 4B. As for the experimental part: as §1, §2
Series [2] deals with MELAS m.3243A>G fibroblasts. Briefly: Seahorse mitochondrial fatty acid oxidation. The format is cell-based, human. Here is the method: as §1, §2
The nature of series [3]: 26-week rat GLP toxicity study. The format is in vivo.
Series [4] deals with fibroblasts from patients harboring mitochondrial mutations (Leigh Syndrome/LHON, MELAS, KSS) and MERRF cybrid cell line. Kind of series: Gene expression analysis in cells harboring mitochondrial mutations. Format: cell-based, human. The note with it: for ACADVL expression: FIG. 3C. The text has this: Leigh syndrome/Leber's hereditary optic neuropathy (LHON) cells were isolated from a patient diagnosed with both Leigh syndrome and LHON. This subject had two point mutations; one in the mtDNA-encoded ND4 gene (mutation 11778G>A) and one in the mtDNA encoded ND6 gene (mutation 14484T>C) in the NADH dehydrogenase complex. m.3243A>G MELAS (Mitochondrial encephalomyopathy, lactic acidosis, and stroke-like episodes) cells were isolated from a patient harboring the m.3243A>G mutation in the mtDNA-encoded tRNA-leucine gene. Kearns Sayre Syndrome (KSS) fibroblast cells were isolated from a patient harboring the 5 kilobase (Kb) common deletion and were obtained from the Coriell Institue along with a control fibroblast cell line. MERRF m.8344A>G osteosarcoma transmitochondrial cybrids were acquired from the Moraes lab (Masucci, J. P., M. P. Schon Ea Fau-King, and M. P. King, Point mutations in the mitochondrial tRNA(Lys) gene: implications for pathogenesis and mechanism. (0300-8177)).
MELAS m.3243A>G fibroblasts were grown in Eagle's minimum essential media (EMEM) supplemented with 10% heat inactivated FBS, 1 mM sodium pyruvate, 1× non-essential amino acids, 2 mM 1-glutamine, and 100 μg/ml of uridine. KSS fibroblasts were grown in EMEM supplemented with 15% heat inactivated FBS, 1× non-essential amino acids, and 100 μg/ml of uridine. Leigh/LHON syndrome fibroblast cell lines were grown in Dulbecco's modified eagle medium (DMEM) supplemented with 1 mM sodium pyruvate, 10% HI FBS, and 100 μg/ml of uridine. MERRF tRNA-LYS 8344 cybrid cells were grown in DMEM supplemented with 10% heat inactivated FBS, 1 mM sodium pyruvate and 100 μg/ml of uridine.
All cell lines with the exception of LHON/Leigh Syndrome fibroblasts were plated at a density of 50 k/well in 6 well plates. Compound (I) or 0.1% DMSO was added 8 hours later in complete media. Treatment media or vehicle media were refreshed 24 hours later for a total treatment time of 48 hours. LHON/Leigh Syndrome fibroblasts were plated and treated in the same manner but for a total treatment time of 24 hours.
mTotal RNA was isolated using NucleoSpin® kits (Macherey-Nagel) as per manufacturer's protocol. One microgram of total RNA was used to generate cDNA using the High-Capacity cDNA Reverse Transcription Kit (Applied Biosystems).
MELAS m.3243A>G fibroblasts, KSS Fibroblast and MERRF tRNA-Lys 8344 cybrid gene expression was performed using 5 ng cDNA and 300 nM of primers were mixed with water and iQ SYBR Green master mix, loaded in 384-well qPCR plates, and subsequently analyzed using a BioRad CFX384 Real-Time PCR Detection System. Fold change was calculated as ΔCt on a per sample basis was calculated as Ct (Gene of interest)−Ct (Average of reference genes). The ΔΔCt was then calculated as ΔCt (experimental sample)−Average ΔCt (control group). Fold change was calculated as 2^−ΔΔCT. LHON/Leigh Syndrome fibroblast cDNA was mixed with dH2O and SYBR Green master mix and 1 μM of primers were dispensed into the sample source plates and primer source plates in 384-well plates, respectively. Reactions were loaded into SmartChip (WaferGen Bio-systems) with Multisample Nanodispenser and the chip was analyzed in the SmartChip Cycler.
Raw expression data was exported from software and graphed after processing with reference genes and normalized against control using QBase software. To obtain normalized values, the calibrated normalized relative quantities (CNRQ) values of each sample were divided by the average CNRQ for all vehicle treated samples in order to make expression relative to the control group.

Each structure is given as a SMILES string. Where “and” joins values, the source holds several entries; their conditions need not be identical. Identical values can stand only once. Entries after “also recorded” stand apart in the source; their conditions may differ.

Turning to `Cc1cnc(-c2ccc(C(F)(F)F)cc2)n1Cc1ccccc1OCCC[C@@H](C)CC(=O)O` [Compound (I), (R)-3-Methyl-6-(2-((5-methyl-2-(4-(trifluoromethyl)phenyl)-1H-imidazol-1-yl)methyl)-phenoxy)hexanoic acid], the “fatty acid-mediated OXPHOS, dose response” value in the series on KSS fibroblasts (KSS patient fibroblasts, two biological replicates, FIG. 4B) is given as “trending dose response”; in series [2] (MELAS patient fibroblasts, two biological replicates, FIG. 4B), “trending dose response”. In addition, the “increase in fatty acid mediated OXPHOS” value is given as “thirty percent or greater” with KSS fibroblasts (KSS, 30 nM) and “thirty percent or greater” in series [2] (MELAS, 30 nM). In addition, the “restoration to the fatty acid-mediated OXPHOS of healthy donor fibroblasts” value in the series with KSS fibroblasts (KSS, 30 nM) is given as “near complete restoration”; in series [2] (MELAS, 30 nM), “partial”. Moreover, the “fatty acid mediated OXPHOS response” value in series [1] (30 nM) was “less pronounced”. Besides, the “fatty acid mediated OXPHOS, dose response” value in series [1] is listed as “dose-dependent trend”. The “no observed adverse effect level (NOAEL)” value in series [3] was “highest tested dose”. The PDK4 transcript increase in series [4] (24 or 48 hour treatment, across all four cell lines tested, FIG. 3B) is 10 to 50 fold and 10 to 100 fold. In addition, the “ANGPTL4 induction (marker of target engagement)” value in series [4] (24 or 48 hours treatment, FIG. 3A) is given as “large induction; also recorded: greatly induced”. For the same compound, the ACADVL expression entry in series [4] (MELAS and MERRF cells, n=2, no statistical comparison) is listed as “showed induction”; in series [4] (two of the lines tested) it was “significantly upregulated”. Further, the CPT1A transcript induction entry in series [4] (across all cell lines tested, FIG. 3D) is listed as “approximately 2 fold”. In series [4] (across all four cell lines tested, FIG. 3E), the SLC25A20 expression result is “induced”. The “Genes involved in the import, packaging and catabolism of fatty acids into the mitochondria for OXPHOS” value in series [4] (across four cell lines with mitochondrial mutations, FIG. 3C-3E) is listed as “upregulated”.

The record behind these values is patent publication US20240358681A1, “METHODS OF USE OF PPAR AGONIST COMPOUNDS AND PHARMACEUTICAL COMPOSITIONS THEREOF” (Mitobridge, Inc., priority 2021, published 2024).
